# Data published in patent US9326973B2, “Hepatitis C virus inhibitors” (priority 2012, dated 2016).
# System: HCV replicon, genotype-1a variant with glutamine 30 changed to glutamate in the NS5A protein
# Experiment: microbe, parasite or virus in culture
# Assay type: cell-based, HCV genotype 1a
# Details: HCV replicon genotype 1a Q30E (Q→E) variant; test compound titrated with an NS5A-targeting compound (BMS-790052 fixed at 200 nM); ranking of synergist activity
# In short: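 Synergy was assessed by combining several fixed amounts of an NS5A-targeting compound with a titration of the second compound of interest.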
row,SMILES,Fold-Synergistic 1a (Q30E)
1,CC(C)(C)[C@H](NC(=O)C1(CO)CCCCO1)c1nc(-c2ccc(-c3ccc(-c4c[nH]c([C@@H](NC(=O)C5(CO)CCCCO5)C(C)(C)C)n4)cc3)cc2)c[nH]1 (stereo partly shown) [Compound P-180],>100 fold
2,Cc1ccc(C2(C(=O)N3CCC[C@H]3c3ncc(-c4ccc(-c5ccc(-c6cnc([C@@H]7CCCN7C(=O)C7(c8ccc(C)cc8)CCCC7)[nH]6)cc5)cc4)[nH]3)CCCC2)cc1 [Compound S-152],<10 fold
3,CC(C)(C)C(=O)N[C@H](c1ncc(-c2ccc(-c3ccc(-c4cnc([C@@H](NC(=O)C(C)(C)C)C(C)(C)CF)[nH]4)cc3)cc2)[nH]1)C(C)(C)CF [Compound Y-68],>100 fold
4,CC(C)(C)[C@H](NCC1CCCCC1)c1nc(-c2ccc(-c3ccc(-c4c[nH]c([C@@H](NCC5CCCCC5)C(C)(C)C)n4)cc3)cc2)c[nH]1 [Compound L-2],>100 fold
5,CC(C)(C)[C@H](NC(=O)C(C)(C)[C@]1(O)C[C@H]2CC(F)(F)C[C@H]2C1)c1nc(-c2ccc(-c3ccc(-c4c[nH]c([C@@H](NC(=O)C(C)(C)[C@]5(O)C[C@H]6CC(F)(F)C[C@H]6C5)C(C)(C)C)n4)cc3)cc2)c[nH]1 [Compound P-157],>100 fold
6,O=C(N1CCC[C@H]1c1ncc(-c2ccc(-c3ccc(-c4cnc([C@@H]5CCCN5C(=O)C5(c6ccc(F)cc6Cl)CCCC5)[nH]4)cc3)cc2)[nH]1)C1(c2ccc(F)cc2Cl)CCCC1 [Compound S-156],<10 fold
7,CC(C)(C)[C@H](NC(=O)C(C)(C)n1cnnn1)c1nc(-c2ccc(-c3ccc(-c4c[nH]c([C@@H](NC(=O)C(C)(C)n5cnnn5)C(C)(C)C)n4)cc3)cc2)c[nH]1 [Compound S-277],>100 fold
8,CCC(C)C(=O)N1CCC[C@H]1c1ncc(-c2ccc(-c3ccc(-c4cnc([C@@H]5CCCN5C(=O)C(C)CC)[nH]4)cc3)cc2)[nH]1 (stereo partly shown) [Compound S-169],<10 fold
9,CC(C)(NCC(F)(F)F)C(=O)N[C@H](c1nc(-c2ccc(-c3ccc(-c4c[nH]c([C@@H](NC(=O)C(C)(C)NCC(F)(F)F)C(C)(C)C)n4)cc3)cc2)c[nH]1)C(C)(C)C [Compound L-50],>100 fold
10,O=C(c1cc2ccccc2[nH]1)N1CCC[C@H]1c1ncc(-c2ccc(-c3ccc(-c4cnc([C@@H]5CCCN5C(=O)c5cc6ccccc6[nH]5)[nH]4)cc3)cc2)[nH]1 [Compound S-120],<10 fold
11,CN(C(=O)OC(C)(C)C)C1(C(=O)N[C@H](c2nc(-c3ccc(-c4ccc(-c5c[nH]c([C@@H](NC(=O)C6(N(C)C(=O)OC(C)(C)C)CCC6)C(C)(C)C)n5)cc4)cc3)c[nH]2)C(C)(C)C)CCC1 [Compound L-14],>100 fold
12,O=C(CCn1ccc2ccccc21)N1CCC[C@H]1c1ncc(-c2ccc(-c3ccc(-c4cnc([C@@H]5CCCN5C(=O)CCn5ccc6ccccc65)[nH]4)cc3)cc2)[nH]1 [Compound S-151],>10 fold
13,CC(C)[C@H](NC(=O)[C@@]1(C)CCC(F)(F)CO1)c1nc(-c2ccc(-c3ccc(-c4c[nH]c([C@@H](NC(=O)[C@@]5(C)CCC(F)(F)CO5)C(C)C)n4)cc3)cc2)c[nH]1 [Compound Y-78],>100 fold
14,COC(=O)N[C@@H](C(=O)NC1(c2nc(-c3ccc(-c4ccc(-c5c[nH]c(C6(NC(=O)[C@H](NC(=O)OC)C(C)C)Cc7ccccc7C6)n5)cc4)cc3)c[nH]2)Cc2ccccc2C1)C(C)C [Compound N-17],<10 fold
15,COC(=O)N1C[C@H](F)C[C@H]1C(=O)N[C@H](c1nc(-c2ccc(-c3ccc(-c4c[nH]c([C@@H](NC(=O)[C@@H]5C[C@@H](F)CN5C(=O)OC)C(C)(C)C)n4)cc3)cc2)c[nH]1)C(C)(C)C [Compound W-109],>100 fold
16,COC(=O)N[C@H](C(=O)N[C@@H](CC(C)C)c1nc(-c2ccc(-c3ccc(-c4c[nH]c([C@H](CC(C)C)NC(=O)[C@@H](NC(=O)OC)C(C)C)n4)cc3)cc2)c[nH]1)C(C)C [Compound N-30],<10 fold
17,Cc1cccc(C(=O)N2CCC[C@H]2c2ncc(-c3ccc(-c4ccc(-c5cnc([C@@H]6CCCN6C(=O)c6cccc(C)n6)[nH]5)cc4)cc3)[nH]2)n1 [Compound S-191],<10 fold
18,CC(C)(C)[C@H](NC(=O)C(F)(F)C1CCCCO1)c1nc(-c2ccc(-c3ccc(-c4c[nH]c([C@@H](NC(=O)C(F)(F)C5CCCCO5)C(C)(C)C)n4)cc3)cc2)c[nH]1 (stereo partly shown) [Compound P-166],>100 fold
19,COc1cnc(C(=O)N2CCC[C@H]2c2ncc(-c3ccc(-c4ccc(-c5cnc([C@@H]6CCCN6C(=O)c6ncc(OC)c7ccccc67)[nH]5)cc4)cc3)[nH]2)c2ccccc12 [Compound S-199],>100 fold
20,O=C(c1cnc2ccccc2n1)N1CCC[C@H]1c1ncc(-c2ccc(-c3ccc(-c4cnc([C@@H]5CCCN5C(=O)c5cnc6ccccc6n5)[nH]4)cc3)cc2)[nH]1 [Compound S-126],>100 fold

row,SMILES,Fold-Synergistic 1a (Q30E)
1,CC(C)(C(=O)N[C@H](c1nc(-c2ccc(-c3ccc(-c4c[nH]c([C@@H](NC(=O)C(C)(C)C(=O)N5CCC(F)(F)CC5)C(C)(C)C)n4)cc3)cc2)c[nH]1)C(C)(C)C)C(=O)N1CCC(F)(F)CC1 [Compound W-141],>100 fold
2,CC(C)(C)[C@H](NC(=O)[C@@H]1CCCCN1CC(F)(F)F)c1nc(-c2ccc(-c3ccc(-c4c[nH]c([C@@H](NC(=O)[C@@H]5CCCCN5CC(F)(F)F)C(C)(C)C)n4)cc3)cc2)c[nH]1 [Compound L-51],>100 fold
3,O=C(c1cnc2ccccc2c1)N1CCC[C@H]1c1ncc(-c2ccc(-c3ccc(-c4cnc([C@@H]5CCCN5C(=O)c5cnc6ccccc6c5)[nH]4)cc3)cc2)[nH]1 [Compound S-124],>10 fold
4,CC(C)(C)[C@H](NC(=O)[C@@H](O)C1CCCCC1)c1nc(-c2ccc(-c3ccc(-c4c[nH]c([C@@H](NC(=O)[C@@H](O)C5CCCCC5)C(C)(C)C)n4)cc3)cc2)c[nH]1 [Compound L-77],>100 fold
5,CC(C)(C)[C@H](NC(=O)[C@H](O)C1CCCCC1)c1nc(-c2ccc(-c3ccc(-c4c[nH]c([C@@H](NC(=O)[C@H](O)C5CCCCC5)C(C)(C)C)n4)cc3)cc2)c[nH]1 [Compound L-74],>100 fold
6,CC(C)[C@H](NC(=O)C(=O)N1CCC(C(F)(F)F)CC1)c1nc(-c2ccc(-c3ccc(-c4c[nH]c([C@@H](NC(=O)C(=O)N5CCC(C(F)(F)F)CC5)C(C)C)n4)cc3)cc2)c[nH]1 [Compound W-53],>100 fold
7,CC(C)(C)[C@H](NC(=O)C(C)(C)n1ncnn1)c1nc(-c2ccc(-c3ccc(-c4c[nH]c([C@@H](NC(=O)C(C)(C)n5ncnn5)C(C)(C)C)n4)cc3)cc2)c[nH]1 [Compound S-276],>100 fold
8,CC(C)(C)[C@H](NC(=O)C1(n2cncn2)CC1)c1nc(-c2ccc(-c3ccc(-c4c[nH]c([C@@H](NC(=O)C5(n6cncn6)CC5)C(C)(C)C)n4)cc3)cc2)c[nH]1 [Compound L-33],>100 fold
9,CC(C)[C@H](NC(=O)C(C)(C)F)c1nc(-c2ccc3c(c2)CCc2cc(-c4c[nH]c([C@@H](NC(=O)C(C)(C)F)C(C)C)n4)ccc2-3)c[nH]1 [Compound N-75],>100 fold
10,CC(C)(C)OC(=O)N1CCCC[C@H]1C(=O)N[C@H](c1nc(-c2ccc(-c3ccc(-c4c[nH]c([C@@H](NC(=O)[C@@H]5CCCCN5C(=O)OC(C)(C)C)C(C)(C)C)n4)cc3)cc2)c[nH]1)C(C)(C)C [Compound L-17],>100 fold
11,COc1ccc2c(C(=O)N3CCC[C@H]3c3ncc(-c4ccc(-c5ccc(-c6cnc([C@@H]7CCCN7C(=O)c7nc(Cl)cc8cc(OC)ccc78)[nH]6)cc5)cc4)[nH]3)nc(Cl)cc2c1 [Compound S-204],>100 fold
12,CC(C)[C@H](NC(=O)C(C)(C)F)c1nc(-c2ccc(-c3ccc(-c4c[nH]c([C@@H](NC(=O)C(C)(C)F)C(C)C)n4)cc3F)cc2)c[nH]1 [Compound N-97],>100 fold
13,C[C@H](C(=O)OC(C)(C)C)[C@@H](C)C(=O)N[C@H](c1nc(-c2ccc(-c3ccc(-c4c[nH]c([C@@H](NC(=O)[C@H](C)[C@H](C)C(=O)OC(C)(C)C)C(C)(C)C)n4)cc3)cc2)c[nH]1)C(C)(C)C [Compound S-292],>100 fold
14,CC(C)(C)[C@H](NC(=O)[C@H]1CCCO1)c1nc(-c2ccc(-c3ccc(-c4c[nH]c([C@@H](NC(=O)[C@H]5CCCO5)C(C)(C)C)n4)cc3)cc2)c[nH]1 [Compound L-64],>100 fold
15,O=C(C1CC1)N1CCC[C@H]1c1ncc(-c2ccc(-c3ccc(-c4cnc([C@@H]5CCCN5C(=O)C5CC5)[nH]4)cc3)cc2)[nH]1 [Compound S-109],<10 fold
16,CC(C)(C)OC(=O)N[C@H]1CCC[C@@H]1C(=O)N[C@H](c1nc(-c2ccc(-c3ccc(-c4c[nH]c([C@@H](NC(=O)[C@H]5CCC[C@@H]5NC(=O)OC(C)(C)C)C(C)(C)C)n4)cc3)cc2)c[nH]1)C(C)(C)C [Compound W-9],>100 fold
17,COCCC(=O)N1CCC[C@H]1c1ncc(-c2ccc(-c3ccc(-c4cnc([C@@H]5CCCN5C(=O)CCOC)[nH]4)cc3)cc2)[nH]1 [Compound S-192],<10 fold
18,Cc1ccc(S(=O)(=O)N[C@H](c2ncc(-c3ccc(-c4ccc(-c5cnc([C@@H](NS(=O)(=O)c6ccc(C)cc6)C(C)C)[nH]5)cc4)cc3)[nH]2)C(C)C)cc1 [Compound Y-58],>100 fold
19,CC1([C@H](NC(=O)C2(N3CCC(F)(F)CC3)COC2)c2nc(-c3ccc(-c4ccc(-c5c[nH]c([C@@H](NC(=O)C6(N7CCC(F)(F)CC7)COC6)C6(C)CC6)n5)cc4)cc3)c[nH]2)CC1 [Compound W-62],>100 fold
20,Cc1onc(-c2ccccc2)c1C(=O)N1CCC[C@H]1c1ncc(-c2ccc(-c3ccc(-c4cnc([C@@H]5CCCN5C(=O)c5c(-c6ccccc6)noc5C)[nH]4)cc3)cc2)[nH]1 [Compound S-118],<10 fold
